According to ChEMBL document CHEMBL3856189, “Synthesis of novel diterpenoid analogs with in-vivo antitumor activity” (Eur J Med Chem, 2016):

Tests used:
[1] = Antiproliferative activity against human HL60 cells after 96 hrs by SRB assay; assay type: functional, cell-based; details: HL-60, 96 h
[2] = Antiproliferative activity against human HCT116 cells after 96 hrs by SRB assay; assay type: functional, cell-based; details: HCT-116, 96 h
Mus musculus [3] = experiment: Toxicity in nude mouse xenografted with human T47D cells assessed as organ damage at 5 mg/kg/day, ip administered daily for 18 days; assay type: organism-based; details: in vivo, 432 h
[4] = Selectivity index, ratio of IC50 for HAF cells to IC50 for human MDA-MB-231 cells; assay type: functional
[5] = Antiproliferative activity against human PC3 cells after 96 hrs by SRB assay; assay type: functional, cell-based; details: PC-3, 96 h
T47D [6] = experiment: Selectivity index, ratio of IC50 for HAF cells to IC50 for human T47D cells; assay type: functional
DU-145 = experiment: Selectivity index, ratio of IC50 for HAF cells to IC50 for human DU145 cells; assay type: functional
[7] = Antitumor activity against human T47D cells xenografted in nude mouse assessed as tumor volume at 5 mg/kg/day, ip administered daily for 18 days measured every 3 days during compound dosing (reference value: 1220 +/- 127 mm3); assay type: functional
[8] = Antiproliferative activity against human MCF7 cells after 96 hrs by SRB assay; assay type: functional, cell-based; details: MCF7, 96 h
[9] = Antiproliferative activity against human T47D cells after 96 hrs by SRB assay; assay type: functional, cell-based
T47D [10] = experiment: Induction of apoptosis in human T47D cells assessed as early apoptotic cells at 20 uM after 48 hrs by Annexin V-FITC/propidium iodide staining based flow cytometry (reference value: 1.75 %); assay type: functional
HCT-116 = experiment: Selectivity index, ratio of IC50 for HAF cells to IC50 for human HCT116 cells; assay type: functional
Mus musculus [11] = experiment: Acute toxicity in nude mouse xenografted with human T47D cells assessed as mortality at 5 to 40 mg/kg/day, ip administered daily for 18 days measured on day 18 post last dose; assay type: organism-based; details: in vivo, 432 h
[12] = Antiproliferative activity against HAF cells after 96 hrs by SRB assay; assay type: cell-based; details: Homo sapiens
[13] = Antiproliferative activity against human HT-29 cells after 96 hrs by SRB assay; assay type: functional, cell-based; details: HT-29, 96 h
T47D [14] = experiment: Induction of apoptosis in human T47D cells assessed as early apoptotic cells at 5 uM after 48 hrs by Annexin V-FITC/propidium iodide staining based flow cytometry (reference value: 1.75 %); assay type: functional
PC-3 = experiment: Selectivity index, ratio of IC50 for HAF cells to IC50 for human PC3 cells; assay type: functional
[15] = Antitumor activity against human T47D cells xenografted in nude mouse assessed as tumor weight at 5 mg/kg/day, ip administered daily for 18 days measured every 3 days during compound dosing (reference value: 882 +/- 149 mg); assay type: functional
T47D [16] = experiment: (§1) Inhibition of colony formation in human T47D cells after 7 days by crystal violet staining based assay; assay type: functional, cell-based
[17] = as §1; assay type: functional, cell-based; details: 168 h
[18] = Antiproliferative activity against human MDA-MB-231 cells after 96 hrs by SRB assay; assay type: functional, cell-based; details: MDA-MB-231, 96 h
T47D [19] = experiment: (§2) Antimigratory activity in human T47D cells assessed as inhibition of cell migration after 12 hrs by crystal violet staining based transwell migration assay; assay type: functional
[20] = as §2; assay type: functional
Mus musculus [21] = experiment: Toxicity in nude mouse xenografted with human T47D cells assessed as body weight loss at 5 mg/kg/day, ip administered daily for 18 days measured every 3 days during compound dosing; assay type: organism-based; details: in vivo
MCF7 = experiment: Selectivity index, ratio of IC50 for HAF cells to IC50 for human MCF7 cells; assay type: functional
T47D [22] = experiment: Induction of apoptosis in human T47D cells assessed as late apoptotic cells at 20 uM after 48 hrs by Annexin V-FITC/propidium iodide staining based flow cytometry (reference value: 2.42 %); assay type: functional
[23] = Antiproliferative activity against human DU145 cells after 96 hrs by SRB assay; assay type: functional, cell-based; details: DU-145, 96 h
T47D [24] = experiment: Induction of apoptosis in human T47D cells assessed as late apoptotic cells at 10 uM after 48 hrs by Annexin V-FITC/propidium iodide staining based flow cytometry (reference value: 2.42 %); assay type: functional
T47D [25] = experiment: Induction of apoptosis in human T47D cells assessed as early apoptotic cells at 10 uM after 48 hrs by Annexin V-FITC/propidium iodide staining based flow cytometry (reference value: 1.75 %); assay type: functional
[26] = Selectivity index, ratio of IC50 for HAF cells to IC50 for human HT-29 cells; assay type: functional
T47D [27] = experiment: Induction of apoptosis in human T47D cells assessed as late apoptotic cells at 5 uM after 48 hrs by Annexin V-FITC/propidium iodide staining based flow cytometry (reference value: 2.42 %); assay type: functional
HL-60 = experiment: Selectivity index, ratio of IC50 for HAF cells to IC50 for human HL60 cells; assay type: functional
Mus musculus [28] = experiment: Toxicity in nude mouse xenografted with human T47D cells assessed as diarrhoea at 5 mg/kg/day, ip administered daily for 18 days; assay type: organism-based; details: in vivo, 432 h

COc1cc([C@@H]2c3cc4c(cc3[C@H](O)[C@H]3COC(=O)[C@H]23)OCO4)cc(OC)c1OC [PODOFILOX]
IC50 [1]: 480 nM
IC50 [2]: 20 nM
Activity (Mus musculus [3]): Toxic
Ratio IC50 [4]: 0.8
IC50 [5]: 50 nM
Ratio IC50 (T47D [6]): 0.8
Ratio IC50 (DU-145): 0.8
Activity [7]: 407 mm3
IC50 [8]: 10 nM
IC50 [9]: 250 nM
Activity (T47D [10]): 11.86%
Ratio IC50 (HCT-116): 0.8
Activity (Mus musculus [11]): Toxic
IC50 [12]: 90 nM
IC50 [13]: 20 nM
Activity (T47D [14]): 4.97%
Ratio IC50 (PC-3): 0.8
Activity [15]: 200 mg
Activity (T47D [16]): Dose-dependent effect
EC50 [17]: 2.97 nM
IC50 [18]: 120 nM
Activity (T47D [19]): Dose-dependent effect
EC50 [20]: 8.98 µM
Activity (Mus musculus [21]): Toxic
Ratio IC50 (MCF7): 0.8
Activity (T47D [22]): 7.21%
IC50 [23]: 10 nM
Activity (T47D [24]): 6.98%
Activity (T47D [25]): 7.47%
Ratio IC50 [26]: 0.8
Activity (T47D [27]): 4.45%
Ratio IC50 (HL-60): 0.8
Activity (Mus musculus [28]): Toxic
